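Dose response: 5 concentrations. Exposure: 48 h. Format: 96-well plates. Endpoint: linear interpolation; highest concentration if not reached. The concentration for full growth arrest is given as TGI.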

Holding throughout (experiment): NCI anticancer screen, dose series, 48 h
For experiment [1], the system named is U251 CNS.
In experiment [2] the test system is NCI/ADR-RES ovarian.
Experiment [3] relates to RXF 393 renal.
Experiment [4] relates to HT29 colon.
Experiment [5] has as its system BT-549 breast.
The subject of experiment [6] is NCI-H226 lung.
For experiment [7], the system named is UACC-62 melanoma.
Experiment [8] concerns SN12C renal.

Take `CC(=O)c1ccc2c(c1)oc(=O)n2CCN(C)C`: the TGI in experiment [1], in experiment [2], in experiment [3], in experiment [4], in experiment [5] and in experiment [6] was > 100 µM throughout. For the same compound, the TGI in experiment [7] was > 100 µM.

As for `O=C1CCC2=C(CCC2)N1CCc1ccc2c(c1)OCO2`, the TGI in experiment [1] is > 100 µM; in experiment [2] it was > 100 µM; in experiment [3] it was 52.5 µM; in experiment [8], > 100 µM; in experiment [4], > 100 µM; in experiment [5] it was 85.4 µM. For the same compound, the TGI in experiment [6] and in experiment [7] was > 100 µM in each case.

With `O=c1c2cc(-c3ccccc3)cnc2sn1-c1ccc([N+](=O)[O-])cc1`, the TGI is 95.1 µM in experiment [1]; > 100 µM in experiment [2]; 82.1 µM in experiment [3]; > 100 µM in experiment [8]; > 100 µM in experiment [4]; > 100 µM in experiment [5]. The TGI in experiment [6] and in experiment [7] was > 100 µM throughout.

Consider `CCCCCC(/C=C/[C@@H]1CC(=O)C[C@H]1O[Si](C)(C)C(C)(C)C)OCOCCOC` (some centres undefined), for which the TGI came to 8.08 µM in experiment [1]; 10.5 µM in experiment [2]; 5.45 µM in experiment [3]; 24.1 µM in experiment [8]; 10.1 µM in experiment [4]; 11.7 µM in experiment [5]. Besides, the TGI came out at 18.8 µM in experiment [6] and 7.64 µM in experiment [7].

With `CN(N)C(=O)NCCCl`, the TGI in experiment [1] is > 100 µM; in experiment [2] it was 0.31 µM; in experiment [3], > 100 µM; in experiment [8] it was > 100 µM; in experiment [4] it was > 100 µM; in experiment [5], > 100 µM. The TGI was 6.42 µM in experiment [6] and > 100 µM in experiment [7].

`Oc1[nH]c2ccccc2c1N=NC(=S)N1CCCCCC1`: the TGI amounted to 8.16 µM in experiment [1]; 1.42 µM in experiment [2]; 2.43 µM in experiment [3]; 10.6 µM in experiment [8]; 10.8 µM in experiment [4]; 4.45 µM in experiment [6]. Further, in experiment [7], the TGI amounted to 2.5 µM.

For the compound `CC(=O)NC1C(OCc2ccccc2)OC(CO)C(O)C1OCC(=O)NC(C)C(=O)NC(CCC(=O)NCCCCCC(=O)Nc1ccc2c(c1)CN1C(=O)c3ccccc3C1=N2)C(N)=O` (centres undefined), the TGI in experiment [1], in experiment [2], in experiment [3], in experiment [8], in experiment [4] and in experiment [5] was > 100 µM in each case. Moreover, the TGI in experiment [7] was > 100 µM.

Regarding `Brc1cccc(C2(CCCC3(c4cccc(Br)n4)OCCO3)OCCO2)n1`, the TGI in experiment [2], in experiment [3], in experiment [8], in experiment [5] and in experiment [6] was > 100 µM in each case.

For `CC(=O)OCC1OC(OCC2OC(N3C(=S)N[C@H]([C@@H](O)[C@H](O)[C@H](O)CO)[C@H]3O)C(OC(C)=O)C(OC(C)=O)C2OC(C)=O)C(OC(C)=O)C(OC(C)=O)C1OC(C)=O` (some centres undefined), the TGI in experiment [1], in experiment [2], in experiment [3], in experiment [8], in experiment [4] and in experiment [7] was > 100 µM in each case.

As to `Cc1nnc(N)nc1/C=C\c1cccs1`, the TGI is > 100 µM in experiment [1]; 76.6 µM in experiment [2]; 40.8 µM in experiment [3]; 41.4 µM in experiment [4]; > 100 µM in experiment [5]; 49.4 µM in experiment [6]. The compound further yielded a TGI in experiment [7] of 49.4 µM.

For the compound `O=C(/C=C/c1cccs1)c1ccsc1`, the TGI in experiment [1] is > 10 µM; in experiment [2] it was > 100 µM; in experiment [8] it was 52.6 µM; in experiment [4], 41.7 µM; in experiment [6], 48.5 µM; in experiment [7], 38.5 µM.

On to `NCCCCNCCCN`, for which the TGI in experiment [1], in experiment [2], in experiment [3], in experiment [4], in experiment [5] and in experiment [6] was > 100 µM throughout. Besides, in experiment [7], the TGI is > 100 µM.

Regarding `CC(C)(C)OC(=O)NC(CCCCNC(=O)OCc1ccccc1)C(=O)NC(CCCCNC(=O)OCc1ccccc1)C(=O)ON1C(=O)CCC1=O` (centres undefined), the TGI in experiment [1], in experiment [3], in experiment [8], in experiment [4], in experiment [5] and in experiment [6] was > 100 µM throughout. In experiment [7], the TGI was > 100 µM.

Take `O=C1Nc2ccccc2NC1C1OC(c2ccccc2)=CC1=O` (centres undefined): the TGI in experiment [1], in experiment [2], in experiment [3], in experiment [4], in experiment [5] and in experiment [6] was > 100 µM each time. Besides, the TGI in experiment [7] is > 100 µM.

In the case of `C=C(C)CC1=C(C(=S)NCCO[Si](C)(C)C(C)(C)C)C(OCC)(OCC)C1=O`, the TGI is 63 µM in experiment [1]; > 100 µM in experiment [2]; 31.5 µM in experiment [3]; 42.2 µM in experiment [8]; > 100 µM in experiment [4]; 33.4 µM in experiment [7].

Consider `Cc1nc2ccccc2c(=O)n1NC(=O)Cc1ccccc1`, for which the TGI in experiment [1], in experiment [3], in experiment [8], in experiment [4], in experiment [5] and in experiment [6] was > 100 µM in each case. For the same compound, the TGI in experiment [7] was > 100 µM.

For `C=C1C(=O)[C@]23[C@H](O)[C@H]1CC[C@H]2[C@@]12CO[C@@]3(O)C[C@@H]1C(C)(C)CC[C@@H]2O`, the TGI was > 25 µM in experiment [2]; 11.5 µM in experiment [3]; > 25 µM in experiment [8]; > 25 µM in experiment [4]; 8.33 µM in experiment [5]; > 25 µM in experiment [6].

Consider `Cc1cc(NC2=NCCO2)c2c(c1C)CCCC2`, for which the TGI in experiment [1] was 63.1 µM; in experiment [2] it was 73.1 µM; in experiment [3] it was > 100 µM; in experiment [8] it was 66.3 µM; in experiment [4] it was 49.7 µM; in experiment [6], 12.4 µM. In experiment [7], this compound registered a TGI of 41.1 µM.

The values are drawn from PubChem BioAssay (NCI).
